The values below come from patent US20230120564A1, “PYRIDO[3,4-D]PYRIMIDINE DERIVATIVE AND THERAPEUTIC PHARMACEUTIC COMPOSITION COMPRISING SAME” (KOREA INSTITUTE OF SCIENCE AND TECHNOLOGY, priority 2020, published 2023).

SMILES strings stand for the structures. Some results are limits rather than exact numbers.

Assay [1] concerns Ba/F3 (N-Ras G12D). Briefly: Inhibition of cell proliferation (GI50). Format: cell-based. Conditions: Mus musculus, BaF3; mt-NRAS (G12D) Ba/F3 cell line; read-out: Proliferation inhibitory activity (GI50, μM) Ba/F3 (N-Ras G12D). As to the method:
(§1) The inhibitory activities of the compounds of the present invention against the proliferation of the mt-NRAS (G12D) Ba/F3 and […] (mt-NRAS) cell lines were measured and the GI50 values thereof were calculated.

Assay [2] concerns OCI-AML3 (N-Ras Q61L). Description: Inhibition of cell proliferation (GI50). Format: cell-based. The following applies: Homo sapiens, OCI-AML-3; OCI-AML3 cell line; read-out: Proliferation inhibitory activity (GI50, μM) OCI-AML3 (N-Ras Q61L). The procedure: as §1
Referring to the results in Table 2, it can be seen that the compound of the present invention has inhibitory activity against the proliferation of the human acute myeloid leukemia cell line (OCI-AML3) having the NRAS mutant gene, and the effect thereof is remarkable. Therefore, it can be seen that the compound of the present invention is particularly effective as a therapeutic agent for acute myeloid leukemia (AML).

The target of assay [3] is ACK1 (Homo sapiens, UniProt Q07912). Description: Kinase inhibitory activity, IC50. Format: biochemical. The procedure:
(§2) The inhibitory activities of the compounds of the present invention against two kinases, GCK and ACK1, were measured, and the IC50 values thereof were calculated. As a control, the following compound GNF7 was used.

Assay [4] has as its target T1, GCK (Homo sapiens, UniProt Q12851).
T1 sequence (Q12851 1-820): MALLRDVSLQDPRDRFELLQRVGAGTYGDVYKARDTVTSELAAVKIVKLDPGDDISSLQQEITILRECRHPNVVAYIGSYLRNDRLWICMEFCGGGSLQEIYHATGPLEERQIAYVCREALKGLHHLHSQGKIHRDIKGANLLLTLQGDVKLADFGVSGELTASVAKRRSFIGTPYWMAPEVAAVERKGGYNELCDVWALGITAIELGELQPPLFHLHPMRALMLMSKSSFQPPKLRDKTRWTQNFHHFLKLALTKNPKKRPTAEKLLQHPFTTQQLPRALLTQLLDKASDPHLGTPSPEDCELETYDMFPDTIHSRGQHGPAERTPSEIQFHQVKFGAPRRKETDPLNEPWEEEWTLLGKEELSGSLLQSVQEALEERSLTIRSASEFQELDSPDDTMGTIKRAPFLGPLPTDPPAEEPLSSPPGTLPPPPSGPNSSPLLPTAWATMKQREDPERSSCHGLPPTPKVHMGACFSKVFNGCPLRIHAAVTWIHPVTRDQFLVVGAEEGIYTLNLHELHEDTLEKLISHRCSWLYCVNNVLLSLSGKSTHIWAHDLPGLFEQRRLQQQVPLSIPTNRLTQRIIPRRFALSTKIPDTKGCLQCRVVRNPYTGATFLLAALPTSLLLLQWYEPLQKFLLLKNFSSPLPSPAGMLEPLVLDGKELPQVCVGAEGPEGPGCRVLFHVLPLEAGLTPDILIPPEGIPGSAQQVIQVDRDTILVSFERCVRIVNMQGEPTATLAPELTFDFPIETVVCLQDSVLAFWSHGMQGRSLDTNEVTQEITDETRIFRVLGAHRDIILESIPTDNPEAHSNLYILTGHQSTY
Description: Kinase inhibitory activity, IC50. Format: biochemical. As to the method: as §2

The subject of assay [5] is Ba/F3 (parental). Description: Inhibition of cell proliferation (GI50). Format: cell-based. Conditions: Mus musculus, BaF3; Ba/F3 (parental) cell line; read-out: Proliferation inhibitory activity (GI50, μM) Ba/F3 (parental). The procedure: The inhibitory activities of the compounds of the present invention against the proliferation of the Ba/F3 (parental) cell line were measured and the GI50 values thereof were calculated.

ACK1, sequence (Q07912 whole entry): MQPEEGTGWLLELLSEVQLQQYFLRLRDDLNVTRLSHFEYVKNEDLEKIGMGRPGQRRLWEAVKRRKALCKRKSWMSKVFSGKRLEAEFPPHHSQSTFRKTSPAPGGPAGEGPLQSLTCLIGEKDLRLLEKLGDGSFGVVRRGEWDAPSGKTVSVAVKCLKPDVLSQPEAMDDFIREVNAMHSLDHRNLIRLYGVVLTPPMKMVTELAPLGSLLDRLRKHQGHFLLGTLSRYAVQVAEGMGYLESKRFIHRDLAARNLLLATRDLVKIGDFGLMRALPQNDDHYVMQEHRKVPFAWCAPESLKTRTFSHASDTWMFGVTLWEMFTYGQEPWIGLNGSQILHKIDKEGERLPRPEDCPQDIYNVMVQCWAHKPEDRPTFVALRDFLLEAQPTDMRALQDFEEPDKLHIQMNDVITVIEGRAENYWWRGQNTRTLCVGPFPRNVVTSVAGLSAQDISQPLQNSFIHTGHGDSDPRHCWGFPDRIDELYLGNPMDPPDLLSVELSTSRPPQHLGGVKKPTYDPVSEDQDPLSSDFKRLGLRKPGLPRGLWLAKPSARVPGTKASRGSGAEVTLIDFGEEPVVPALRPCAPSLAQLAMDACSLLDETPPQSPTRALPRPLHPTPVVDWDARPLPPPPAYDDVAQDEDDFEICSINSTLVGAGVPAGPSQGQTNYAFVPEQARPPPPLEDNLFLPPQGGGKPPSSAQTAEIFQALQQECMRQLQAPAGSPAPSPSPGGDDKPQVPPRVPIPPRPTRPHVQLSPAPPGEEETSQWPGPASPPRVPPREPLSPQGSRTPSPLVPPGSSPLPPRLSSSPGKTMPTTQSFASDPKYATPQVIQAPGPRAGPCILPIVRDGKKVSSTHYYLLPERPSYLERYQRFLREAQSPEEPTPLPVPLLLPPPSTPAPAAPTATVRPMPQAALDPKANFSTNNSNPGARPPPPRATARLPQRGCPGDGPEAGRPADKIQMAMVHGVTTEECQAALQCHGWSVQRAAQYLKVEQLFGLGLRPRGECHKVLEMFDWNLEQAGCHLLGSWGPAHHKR

For `Cc1ccc(Nc2ncc3cc(-c4cc(NC(=O)c5cccc(C(F)(F)F)c5)ccc4C)nc(Cl)c3n2)cn1` [Compound No. 1, N-(3-(8-chloro-2-((6-methylpyridin-3-yl)amino)pyrido[3,4-d]pyrimidin-6-yl)-4-methylphenyl)-3-(trifluoromethyl)benzamide], the GI50 in assay [1] is < 0.5 µM; in assay [2] it was < 0.5 µM; in assay [5], > 5 µM. Further, the IC50 in assay [3] was 100 to 1000 nM; in assay [4], > 10000 nM.
As to `Cc1ccc(Nc2ncc3cc(-c4cc(NC(=O)c5cc(-n6cnc(C)c6)cc(C(F)(F)F)c5)ccc4C)ncc3n2)cn1` [Compound No. 13, 3-(4-methyl-1H-imidazol-1-yl)-N-(4-methyl-3-(2-((6-methylpyridin-3-yl)amino)pyrido[3,4-d]pyrimidin-6-yl)phenyl)-5-(trifluoromethyl)benzamide], the values for the GI50 in assay [1], in assay [2] and in assay [5] were < 0.5 µM, < 0.5 µM and > 5 µM, respectively.
For `Cc1ccc(Nc2ncc3cc(-c4cc(NC(=O)c5ccc(CN6CCOCC6)c(C(F)(F)F)c5)ccc4C)ncc3n2)cn1` [Compound No. 12, N-(4-methyl-3-(2-((6-methylpyridin-3-yl)amino)pyrido[3,4-d]pyrimidin-6-yl)phenyl)-4-(morpholinemethyl)-3-(trifluoromethyl)benzamide], the GI50 was < 0.5 µM in assay [1], < 0.5 µM in assay [2] and > 5 µM in assay [5].
`Cc1ccc(NC(=O)c2cccc(C(F)(F)F)c2)cc1-c1cc2cnc(NCCO)nc2cn1` [Compound No. 18, N-(3-(2-((2-hydroxyethyl)amino)pyrido[3,4-d]pyrimidin-6-yl)-4-methylphenyl)-3-(trifluoromethyl)benzamide]: the results for the GI50 in assay [1], in assay [2] and in assay [5] were < 0.5 µM, < 0.5 µM and > 5 µM, respectively. Moreover, the IC50 in assay [3] and in assay [4] was 100 to 1000 nM in each case.
For the compound `Cc1ccc(NC(=O)c2cccc(C(F)(F)F)c2)cc1-c1cc2cnc(N)nc2cn1` [Compound No. 17, N-(3-(2-aminopyrido[3,4-d]pyrimidin-6-yl)-4-methylphenyl)-3-(trifluoromethyl)benzamide], the GI50 in assay [1] is < 0.5 µM; in assay [2], < 0.5 µM; in assay [5], > 5 µM.
For the compound `Cc1ccc(Nc2ncc3cc(-c4cc(NC(=O)c5cc(N6CCOCC6)cc(C(F)(F)F)c5)ccc4C)ncc3n2)cn1` [Compound No. 14, N-(4-methyl-3-(2-((6-methylpyridin-3-yl)amino)pyrido[3,4-d]pyrimidin-6-yl)phenyl)-3-morpholino-5-(trifluoromethyl)benzamide], the GI50 in assay [1] is < 0.5 µM; in assay [2], < 0.5 µM; in assay [5] it was 0.5 to 3 µM.
Take `COc1nc(-c2cc(NC(=O)c3cccc(C(F)(F)F)c3)ccc2C)cc2cnc(Nc3ccc(C)nc3)nc12` [Compound No. 8, N-(3-(8-methoxy-2-((6-methylpyridin-3-yl)amino)pyrido[3,4-d]pyrimidin-6-yl)-4-methylphenyl)-3-(trifluoromethyl)benzamide]: the GI50 in assay [1] is 0.5 to 3 µM; in assay [2], < 0.5 µM; in assay [5], 3 to 5 µM.
Take `CCc1nc(-c2cc(NC(=O)c3cccc(C(F)(F)F)c3)ccc2C)cc2cnc(Nc3ccc(C)nc3)nc12` [Compound No. 3, N-(3-(8-ethyl-2-((6-methylpyridin-3-yl)amino)pyrido[3,4-d]pyrimidin-6-yl)-4-methylphenyl)-3-(trifluoromethyl)benzamide]: the GI50 is 0.5 to 3 µM in assay [1], 0.5 to 3 µM in assay [2] and > 5 µM in assay [5]. The IC50 is 100 to 1000 nM in assay [3] and > 10000 nM in assay [4].
As to `Cc1ccncc1Nc1ncc2cc(-c3cc(NC(=O)c4cccc(C(F)(F)F)c4)ccc3C)ncc2n1` [Compound No. 23, N-(4-methyl-3-(2-((4-methylpyridin-3-yl)amino)pyrido[3,4-d]pyrimidin-6-yl)phenyl)-3-(trifluoromethyl)benzamide], the GI50 in assay [1], in assay [2] and in assay [5] was < 0.5 µM in each case.
Turning to `Cc1ccc(Nc2ncc3cc(-c4cc(NC(=O)c5cccc(C(F)(F)F)c5)ccc4C)ncc3n2)c(C)n1` [Compound No. 24, N-(3-(2-((2,6-dimethylpyridin-3-yl)amino)pyrido[3,4-d]pyrimidin-6-yl)-4-methylphenyl)-3-(trifluoromethyl)benzamide], the GI50 in assay [1] was < 0.5 µM; in assay [2] it was < 0.5 µM; in assay [5], > 5 µM.
Take `Cc1ccc(NC(=O)c2cccc(C(F)(F)F)c2)cc1-c1cc2cnc(NC3CC3)nc2cn1` [Compound No. 19, N-(3-(2-(cyclicpropylamino)-pyrido[3,4-d]pyrimidin-6-yl)-4-methylphenyl)-3-(trifluoromethyl)benzamide]: the GI50 was < 0.5 µM in assay [1], < 0.5 µM in assay [2] and 0.5 to 3 µM in assay [5]. Besides, the IC50 in assay [3] and in assay [4] was 100 to 1000 nM in each case.
As to `C=Cc1nc(-c2cc(NC(=O)c3cccc(C(F)(F)F)c3)ccc2C)cc2cnc(Nc3ccc(C)nc3)nc12` [Compound No. 2, N-(4-methyl-3-(2-((6-methylpyridin-3-yl)amino)-8-vinylpyrido[3,4-d]pyrimidin-6-yl)phenyl)-3-(trifluoromethyl)benzamide], the GI50 is < 0.5 µM in assay [1], 0.5 to 3 µM in assay [2] and 3 to 5 µM in assay [5].
Consider `Cc1ccc(Nc2ncc3c(n2)N(C)C(=O)N(c2cc(NC(=O)c4cccc(C(F)(F)F)c4)ccc2C)C3)cn1` [GNF 7, reference compound], for which the GI50 in assay [1] is 0.5 to 3 µM; in assay [2], < 0.5 µM; in assay [5] it was 3 to 5 µM. The IC50 in assay [3] and in assay [4] was < 100 nM in each case.
